Experimental findings from patent US20260166084A1, “NOVEL DRUG-INDUCIBLE DEGRADATION TAGS” (THE INSTITUTE OF CANCER RESEARCH: ROYAL CANCER HOSPITAL, priority 2022, published 2026) are described below.

The test system of experiment [1] is anti-B7H3 chimeric antigen receptor (TE9). Description: Cell surface expression of tagged CAR in transduced Jurkat and 293T cells by flow cytometry. Particulars: for surface expression of tagged CARs: transduced Jurkat cells, 41BB and CD28 versions of TE9 CAR, FIG. 10. It is filed as cell-based, human. How it is done: Initial experiments evaluated expression and degradation in human Jurat T cell leukaemia cells or human 293T cells, which were stably transduced with untagged, iTAG1(DCD23)-tagged, and iTAG2-tagged anti-B7H3 CAR-T cells. Here the relative expression of the CAR and the CD34 marker gene are determined by direct staining and evaluation by flow cytometry.
Jurkat and 293T cell lines were grown in DMEM with 10% fetal calf serum and transduced with constructs containing CAR+/−degrader tag. Transduction efficiency was analysed 72 hours post transduction by flow cytometry, staining for the CD34 epitope encoded by the RQR8 gene.
(§1) CAR surface expression for transduction efficiency and degradation experiments in primary cells and cell lines was quantified using his-tagged B7H3 protein in combination with anti his-tagged fluorescent antibody (J095G45, BioLegend), and directly fluorescently labelled anti CD34 antibody (QBEnd10, R&D), using LSR2 cytometer. Analysis used Flo-Jo software.

For another experiment, the system named is HMEC cells. Nature of the experiment: Nuclear localisation by immunofluorescence in HMEC. It is filed as cell-based, human. Particulars: fluorescence microscopy, FIG. 3b and 13. How it is done:
To determine localisation of “superdegron” which has a degree of homology with iTAG1, the inventors cloned superdegron into the expression vector to replace iTAG1 as the degron fused with GFP.
HMEC cells were seeded in glass bottom 96-well plates (Perkin Elmer) at a 1000 cells/well and treated with 1 μg/ml DOX for 24 h to induce construct. Cells were fixed using 4% paraformaldehyde in PBS solution for 15 min at 37° C. and permeabilised with 0.05% Titon-X-100 detergent for 10 min at room temperature. Prior to proceeding to cell imaging, the cells were incubated for a min with 1 μg/ml DAPI (ThermoFisher Scientific) to stain the cell nuclei. Cells were visualised on the Zeiss Axio Vert.A1 FL-LED inverted epifluorescence microscope (Zeiss) and images were captured using the ZEN Blue software (Zeiss).

The subject of experiment [2] is iTAG2 and DCD23-tagged chimeric antigen receptor (TE9-28-Z). Description: IMiD induced degradation of tagged CAR in transduced Jurkat cells. It is filed as cell-based, human. Particulars: lenalidomide, pomalidomide, iberdomide. The method, then: (§2) CAR expression in PBMC-derived T cells following degradation with 10, 1, 0.1, 0.01, 0.001 or 0 uM iberdomide after 24 hours, was assessed by flow cytometry. To assess CAR functionality+/−degrader tag, transduced T cells were cultured 24 hours with SUPT1+/−B7H3 at a 1:1 ratio. Supernatant was harvested, and IL-2 and IFNγ levels determined by ELISA.
as §1

The test system of experiment [3] is degron containing domains (DCDs). Nature of the experiment: Degradation matrix of DCD tags with IMiD/CELMoD panel by flow cytometry. In kind it is cell-based. Particulars: panel of IMiD/CELMoD small molecules, FIG. 1. The text has this: FIG. 1: Experimental evaluation of the DCD tags. (a) Heat map summary of the degradation matrix data of all the DCDs tested in flow cytometry experiments. Normalized values were represented in the Log 2 Fold Change relative to the DMSO control. […] (b) Representation of iTAG1-DCD23 (60 aa). The 2 Cys and 2 His from the C2H2 zinc finger motif are highlighted in light grey. The crucial Glycine in the b-hairpin loop degron is highlighted in bold dark grey.
To address the limitations of the currently available protein modulation tools, the inventors developed a novel and robust system for targeted protein degradation by exploiting the fusion of an IMiD/CeLMOD recognition sequence to a protein of interest. […] This 60 amino acid sequence is referred to as iTAG1 (DCD23) herein.
Construct expression was induced by treating cells with 1 μg/ml DOX for 24 h. The cells were treated with IMiDs/CELMoDs at concentrations and time-points indicated for each experimental setting. Cells were collected, on ice, in sterile 5 ml polystyrene round-bottom tubes. DAPI (4′,6-diamidino-2-phenylindole; ThermoFisher Scientific) was added to the cell suspension at a ratio of 1:1000, as a marker for cell viability. The EGFP signal was measured on the BD LSR II flow cytometer (BD Biosciences). Further processing of the results was performed using FlowJo 10 Software (FlowJo).

Experiment [4] has as its system SupT1 cells transduced to express human B7H3. Description: CAR functionality: cytokine ELISA after co-culture with SupT1-B7H3 targets. It is filed as cell-based. Particulars: primary human T cells, 1:1 with SupT1-B7H3, overnight, ELISA, FIG. 9.
Source text: To evaluate whether the brighter CAR expression of iTAG2 tagged CAR compared with DCD23-tagged CAR translated into greater effector function, the respective CAR-T populations from the two independent donors were co-cultured overnight with human SupT1 leukaemia target cells isogenic for the target antigen B7H3. Wild type SupT1 have no detectable B7H3 expression. Following overnight culture of T cells with the targets, culture supernatant was harvested and evaluated for inflammatory cytokines interferon gamma and Interleukin-2 by ELISA (FIG. 9).
as §2
(In an ELISA, binding on a coated surface is turned into a signal by an enzyme label.)

With “SuperDegron: prototypic zinc finger-based 60 amino acid degron, hybrid of ZFP91 and IKZF3 (WO2019089592) (FNVLMVHKRSHTGERPLQCEICGFTCRQKGNLLRHIKLHTGEKPFKCHLCNYACQRRDAL; SuperDegron) [reference compound]”, the “surface expression of tagged CARs” value in experiment [1] is on record as “weak surface expression”. The “nuclear accumulation / localisation of tagged EGFP/GFP” value in the experiment with HMEC cells was “strong nuclear localisation”.
Regarding “iTAG1: 60 amino acid degron tag based on a chimeric sequence of Ikaros and ZFP91 (PNVLMVHKRSHTGERPLQCEICGFTCRQKGNLLRHIKLHSGEKPFKCHLCNYACRRRDAL)”, in experiment [1] (transduced 293T and Jurkat cells, FIG. 6), the “cell surface expression of tagged CAR relative to CD34 marker” value is on record as “relatively poor cell surface expression”. Moreover, the “surface expression of tagged CARs” value in experiment [1] is on record as “weak surface expression”. In the experiment with HMEC cells, the “nuclear accumulation / localisation of tagged EGFP/GFP” value is listed as “predominant nuclear localisation”. The “time of drug treatment at which maximal reduction of surface expression is detectable” value in experiment [2] amounted to 4 h. Moreover, the “drug-induced degradation of DCD tag” value in experiment [3] was “induces acute target degradation in vitro and in vivo”. Also, in experiment [4], the “reduced IL-2 secretion compared with iTAG2 fusion protein” value is reported as “approximately 30 fold” and the “reduced effector function compared with iTAG2 fusion protein, interferon gamma secretion” value is “approximately 5 fold”.
